Laboratory results published in the NIST ThermoML archive (doi:10.1021/je400274f).
Several values for one entry are separate records, joined by “and”; a condition that tells them apart may be missing. Equal entries are not always repeated. ± gives the expanded uncertainty stated by the source.

Settings: 101.33 kPa, Liquid; for viscosity: Concentric cylinders viscometry; for speed of sound: Pulse-echo method; for mass density: Vibrating tube method

CCC(C)CC(C)CC (centres undefined) [3,5-dimethylheptane]
Settings | mass density | speed of sound [m/s] | viscosity [mPa·s]
283.15 K | 734.1 ± 0.5 kg/m3 and 734 ± 0.4 kg/m3 | 1245.1 ± 1.9 | 0.792 ± 0.018
293.15 K | 726.2 ± 0.4 kg/m3 and 726.3 ± 0.5 kg/m3 | 1203.3 ± 1.9 | 0.688 ± 0.016
303.15 K | 718.4 ± 0.4 kg/m3 and 718.4 ± 0.5 kg/m3 | 1162 ± 1.9 | 0.604 ± 0.014
313.15 K | 710.5 ± 0.4 kg/m3 and 710.5 ± 0.5 kg/m3 | 1121.3 ± 1.9 | 0.508 ± 0.012
323.15 K | 702.5 ± 0.4 kg/m3 and 702.5 ± 0.5 kg/m3 | 1081.4 ± 1.9 | 0.477 ± 0.012
333.15 K | 694.5 ± 0.5 kg/m3 | – | 0.428 ± 0.01
343.15 K | 686.3 ± 0.5 kg/m3 | – | 0.386 ± 0.01
353.15 K | 678 ± 0.5 kg/m3 | – | 0.35 ± 0.01
363.15 K | 669.7 ± 0.5 kg/m3 | – | 0.319 ± 0.008
373.15 K | 661.2 ± 0.5 kg/m3 | – | –

CCC(C)CCC(C)CC (centres undefined) [3,6-dimethyloctane]
Settings | mass density | speed of sound [m/s] | viscosity [mPa·s]
283.15 K | 746.6 ± 0.4 kg/m3 and 746.6 ± 0.5 kg/m3 | 1277.8 ± 1.7 | 0.988 ± 0.022
293.15 K | 738.9 ± 0.5 kg/m3 and 738.9 ± 0.4 kg/m3 | 1236.7 ± 1.7 | 0.846 ± 0.018
303.15 K | 731.2 ± 0.5 kg/m3 and 731.1 ± 0.4 kg/m3 | 1196.2 ± 1.7 | 0.733 ± 0.016
313.15 K | 723.5 ± 0.6 kg/m3 and 723.3 ± 0.4 kg/m3 | 1156.3 ± 1.9 | 0.62 ± 0.014
323.15 K | 715.7 ± 0.6 kg/m3 and 715.5 ± 0.4 kg/m3 | 1117.2 ± 1.7 | 0.568 ± 0.014
333.15 K | 707.6 ± 0.4 kg/m3 | – | 0.506 ± 0.012
343.15 K | 699.6 ± 0.4 kg/m3 | – | 0.453 ± 0.01
353.15 K | 691.5 ± 0.4 kg/m3 | – | 0.409 ± 0.01
363.15 K | 683.3 ± 0.4 kg/m3 | – | 0.372 ± 0.01
373.15 K | 674.9 ± 0.5 kg/m3 | – | 0.328 ± 0.008

CCCCC(C)CCC (centres undefined) [4-methyloctane]
Settings | mass density | speed of sound [m/s] | viscosity [mPa·s]
283.15 K | 727.5 ± 0.4 kg/m3 and 727.6 ± 0.3 kg/m3 | 1254.9 ± 1.5 | 0.719 ± 0.021
293.15 K | 719.8 ± 0.3 kg/m3 and 719.7 ± 0.4 kg/m3 | 1213 ± 1.5 | 0.628 ± 0.021
303.15 K | 711.9 ± 0.3 kg/m3 and 711.7 ± 0.4 kg/m3 | 1171.6 ± 1.5 | 0.554 ± 0.021
313.15 K | 703.9 ± 0.3 kg/m3 and 703.7 ± 0.4 kg/m3 | 1130.8 ± 1.5 | 0.453 ± 0.08
323.15 K | 695.9 ± 0.3 kg/m3 and 695.7 ± 0.4 kg/m3 | 1090.7 ± 1.5 | 0.441 ± 0.021
333.15 K | 687.5 ± 0.4 kg/m3 | – | 0.397 ± 0.021
343.15 K | 679.3 ± 0.4 kg/m3 | – | 0.368 ± 0.06
353.15 K | 671 ± 0.4 kg/m3 | – | 0.329 ± 0.04
363.15 K | 662.5 ± 0.4 kg/m3 | – | 0.294 ± 0.04
373.15 K | 653.9 ± 0.4 kg/m3 | – | 0.261 ± 0.04

CCCCCCCCC(C)CC (centres undefined) [3-methylundecane]
Settings | mass density | speed of sound [m/s] | viscosity [mPa·s]
283.15 K | 758.6 ± 0.6 kg/m3 and 758.3 ± 0.6 kg/m3 | 1330.2 ± 2.3 | 1.73 ± 0.03
293.15 K | 751.1 ± 0.6 kg/m3 and 751.3 ± 0.6 kg/m3 | 1291 ± 2.3 | 1.43 ± 0.03
303.15 K | 743.9 ± 0.6 kg/m3 and 744 ± 0.6 kg/m3 | 1252.2 ± 2.3 | 1.2 ± 0.02
313.15 K | 736.6 ± 0.6 kg/m3 and 736.7 ± 0.6 kg/m3 | 1214 ± 2.3 | 1.01 ± 0.02
323.15 K | 729.3 ± 0.6 kg/m3 | 1176.6 ± 2.3 | 0.883 ± 0.021
333.15 K | 721.9 ± 0.6 kg/m3 | – | 0.771 ± 0.019
343.15 K | 714.4 ± 0.6 kg/m3 | – | 0.68 ± 0.017
353.15 K | 707 ± 0.6 kg/m3 | – | 0.605 ± 0.014
363.15 K | 699.4 ± 0.6 kg/m3 | – | 0.543 ± 0.012
373.15 K | 691.9 ± 0.6 kg/m3 | – | 0.492 ± 0.012

CCCCCCCCCC(C)CCCCCC (centres undefined) [7-methylhexadecane]
Settings | mass density | speed of sound [m/s] | viscosity [mPa·s]
283.15 K | 787.6 ± 0.6 kg/m3 | 1392.5 ± 2.3 | 5.36 ± 0.52
293.15 K | 780.7 ± 0.6 kg/m3 | 1354.9 ± 2.3 | 4 ± 0.4
303.15 K | 773.9 ± 0.6 kg/m3 and 773.8 ± 0.6 kg/m3 | 1317.7 ± 2.3 | 3.09 ± 0.28
313.15 K | 767 ± 0.6 kg/m3 and 766.9 ± 0.6 kg/m3 | 1281.3 ± 2.3 | 2.47 ± 0.22
323.15 K | 760.2 ± 0.6 kg/m3 and 760 ± 0.6 kg/m3 | 1245.5 ± 2.3 | 2 ± 0.18
333.15 K | 753.1 ± 0.6 kg/m3 | – | 1.66 ± 0.16
343.15 K | 746.2 ± 0.6 kg/m3 | – | 1.41 ± 0.12
353.15 K | 739.3 ± 0.6 kg/m3 | – | 1.21 ± 0.08
363.15 K | 732.4 ± 0.6 kg/m3 | – | 1.05 ± 0.08
373.15 K | 725.4 ± 0.6 kg/m3 | – | 0.91 ± 0.05
